Laboratory results published in patent US11028127B2, “Peptides capable of reactivating p53 mutants” (Yeda Research and Development Co. Ltd., priority 2013, dated 2021).

What was measured:
Format in all cases: cell-based
R175H p53 = target: T1, R175H p53 (Homo sapiens, UniProt P04637, R175H); test: TK-RGC-luc luciferase reporter assay in H1299 p53−/− cells; settings: peptides added 24 hours after transfection, read at 48 hours
T1 construct: a hot spot full length mutant p53 Mut-p53 R175H (R175H p53); expressed in transfected cells; host or cells: H1299 p53-/- cells, transient transfection
Procedure: (§1) FIG. 12 is a bar graph illustrating the relative luciferase activity (cLuc/gLuc) as measured in the various tested samples. Transient transfection of H1299 p53^−/− cells was performed with plasmids expressing WT p53, R175H p53, R249S p53 or empty vector as control, together with TK-RGC-luc, where luciferase expression is under control of a tandem array of multiple p53-responsive elements. 24 hours after transfection, cells were treated with the test peptides. 48 hours after transfection, a sample of the culture medium was taken for bioluminescence measurements.
(§2) The oligonucleotide (RGC-W) that has the sequence 5′-[…]-3′ (SEQ ID NO:362), and the oligonucleotide mutant RGC oligonucleotide (RGC-M) that has the sequence 5′-[…]-3′ (SEQ ID NO:363), are both derived from Kern et al. (Kern, S. E., et al., Identification of p53 as a sequence-specific DNA-binding protein. Science, 1991. 252(5013): p. 1708-11), and serve as a consensus binding sites for WT p53.
(§3) These motifs were cloned into the KPN and Eco53IK sites in pCLuc Mini-TK 2 Vector (NEB, Cat No. N0324S ). The Luciferase construct was used to assess transcriptional activation of p53 in test cells.
(§4) H1299 p53-null cells were cultured overnight and then transfected with the luciferase constructs using MaxFect Transfection Agent (Mediatech) according to the manufacturer's protocol. Prior to the transfection, cell medium was exchanged to OPTI-MEM.
(§5) The cells were treated with different peptides 24 hours after transfection. After additional 24 hours, growth medium was collected to 96 black plates: 40 μl for Cluc assay, and 20 μl for Gluc assay. Assay was performed using Turner BioSystems Modulus Microplate. Value was calculated by Cluc/gluc/NT (non-treated cells).
(§6) As additional screening strategy used to identify reactivating peptides was performed in vivo and is based on a reporter gene assay. It measures p53 transcriptional activity by quantifying the activity of a reporter gene, placed under the control of a promoter containing 17 repeats of a p53 consensus binding site (RGC). The luciferase assay is performed on living cells and therefore provides an indication on the effect of test peptides on Mut-p53 function in the context of intact cells.
(§7) For the in vivo luciferase based screening, H1299 cells were used. Transient transfection of these p53^−/− cells was performed with vectors expressing WT p53, R175H p53, R249S p53 or empty vector as control (Suad, O., et al., Structural basis of restoring sequence-specific DNA binding and transactivation to mutant p53 by suppressor mutations. J. Mol. Biol., 2009. 385(1): p. 249-65). Cells were also co-transfected with TK-RGC-luc (CAT. No. NEB, N0324S). 24 hours after transfection, cells were treated with the test peptides. […]

R249S p53 = target: T2, R249S p53 (Homo sapiens, UniProt P04637, R249S); test: as above; settings: peptides added 24 hours after transfection, read at 48 hours
T2 construct: expressed in transfected cells; host or cells: H1299 p53-/- cells, transient transfection
Procedure: as §1, §2, §3, §4, §5, §6, §7

[1] = test system: WI-38 fibroblasts expressing mouse Noxa shRNA (WI38-m-Noxa-i); test: Crystal violet viability assay; settings: 48 hours
Procedure: FIGS. 13A and 13B are bar graphs illustrating the effect of various tested peptides on the viability of cells expressing Mut-p53, as determine by crystal violet assay. WI-38 fibroblasts expressing endogenous WT p53 were infected with retroviruses expressing either mouse Noxa shRNA (WI38-m-Noxa-i) as a nonspecific control or the R175H p53 mutant for stable overexpression of mutant p53 (WI38-175). The cells (WI38-m-Noxa-i or WI38-175) were seeded at 3000 cells per well in 96-well plates. Tested peptides were added to the cells. Different concentrations of etoposide (cytotoxic drug, 4′-Demethyl-epipodophyllotoxin 9-[4,6-O—(R)-ethylidene-beta-D-glucopyranoside], 4′-(dihydrogen phosphate) were used as positive control for cell death and as a standard reference curve to assess the effect of tested peptides. 48 hours after treatment, cells were washed with PBS to exclude dead cells and debris, and cells that remained attached to the plate were stained with crystal-violet for 30 minutes. Crystal violet was removed and cells were washed 4 times with PBS to remove residual crystal violet. Then, the stained cells were dissolved in 10% acetic acid and plates were taken for optical density measurement at 595 nM (optimal for crystal violet). The bar graphs of FIGS. 13A and 13B show the optical density reads at 595 nm, which reflect the number of cells in the plate after treatment, normalized to the non-treated (NT) samples.
Cells were cultured in 96 wells plates with 2500-4000 cells/well in 0.1 ml and incubated overnight at 37° C. in order to adhere to the plate. Serial dilutions of different peptides (0.5 μg/ml) were added in 0.1 ml aliquots and the plates incubated for additional 48 h at 37° C. Then medium was removed and cell lysis was determined by staining the cells with crystal violet (0.5%) in methanol/water (1:4, v/v), 50 μl each well, for 10 min, followed by 3 washes with PBS. Afterwards, 10% acetic acid (50 μl) was added to each well and shaken for 10 min. Then, automatic plate reading was performed at 595 nm.
An important indication for the reactivating peptides activity is their effect in-vivo on cancer cells that express Mut-p53. In particular, reactivating peptides that can cause specifically Mut-p53-dependent death of cancer cells, with minimal toxic effects on normal cells are desired. A crystal-violet based viability assay, in which crystal-violet is employed to stain cells that adhere to the plate and therefore the amount of dye is proportional to cell number was used to determine the effect of the various test peptides on Mut-p53-dependent death.
Cells were plated in 96-well plates, at calibrated density that allows them to grow for 48 hours without reaching confluence. Peptides are added 6 hours later. Different concentrations of etoposide (cytotoxic drug) were used as positive control for cell death and as a standard reference curve to assess the effect of tested peptides. 48 hours after treatment, cells were washed with PBS to exclude dead cells and debris, and cells that remained attached to the plate were stained with crystal-violet for 30 minutes. Crystal-violet was removed and cells were washed with PBS 4 times to eliminate remains of crystal-violet. Then, the stained cells were dissolved in 10% acetic acid and plates were taken for optical density measurement at 595 nM (specific to crystal-violet).
FIGS. 13A and 13B illustrate a representative experiment of screening performed on 128 synthesized peptides. In this experiment, WI-38 fibroblasts were used. These cells express endogenous WT p53 and were further infected with a virus expressing either mouse Noxa shRNA, as a nonspecific control or the R175H p53 mutant for stable overexpression of mutant p53. Both of these sub-lines (mNoxa or R175H p53) were seeded at 3000 cells per well and treated as described above. […]

In the case of YRRLLIGMMWRRRRRRRRRRR [pCAP-68], the “transcription from TK-RGC-luc in the presence of R175H p53” value (R175H p53) is reported as “induce transcription from TK-RGC-luc”, the “transcription from TK-RGC-luc in the presence of R249S p53” value (R249S p53) is reported as “induce transcription from TK-RGC-luc” and the “effect on cell numbers, mNoxa-i control WI-38 cells” value [1] is reported as “toxic effect on both cell sub-lines”.
